According to PubChem BioAssay AID330 (DTP/NCI, 2004):
Where “and” joins values, the source holds several entries; their conditions need not be identical. Equal entries are not always repeated. Toxic doses and inconclusive results are not listed. How the source made its calls: active means survival T/C of 150% or more; inactive means T/C below 125% in these data.

Tested on: P388 leukemia ip, CD2F1 mice, survival T/C
Assay: NCI In Vivo Anticancer Drug Screen. Data for tumor model P388 Leukemia (intraperitoneal) in CD2F1 (CDF1) mice
Conditions: endpoint: median survival time, higher = longer survival
How it was run: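 Mice carrying the transplanted tumor received test compound or vehicle. Survival was recorded in each group, and the value is the treated-group measurement divided by that of the vehicle-treated control group.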

[1] = dose: 25.0 mg/kg/injection, schedule: Q01DX009 (ip), vehicle: Klucel (hydroxypropylcellulose) (HPC)
[2] = dose: 50.0 mg/kg/injection, schedule: Q01DX009 (ip), vehicle: Klucel (hydroxypropylcellulose) (HPC)
[3] = dose: 100.0 mg/kg/injection, schedule: Q01DX009 (ip), vehicle: Klucel (hydroxypropylcellulose) (HPC)
[4] = dose: 200.0 mg/kg/injection, schedule: Q01DX009 (ip), vehicle: Klucel (hydroxypropylcellulose) (HPC)
[5] = dose: 60.0 mg/kg/injection, schedule: Q01DX005 (ip), vehicle: saline with Tween-80
[6] = dose: 120.0 mg/kg/injection, schedule: Q01DX005 (ip), vehicle: saline with Tween-80
[7] = dose: 240.0 mg/kg/injection, schedule: Q01DX005 (ip), vehicle: saline with Tween-80
[8] = dose: 50.0 mg/kg/injection, schedule: Q01DX005 (ip), vehicle: Klucel (hydroxypropylcellulose) (HPC)
[9] = dose: 100.0 mg/kg/injection, schedule: Q01DX005 (ip), vehicle: Klucel (hydroxypropylcellulose) (HPC)
[10] = dose: 200.0 mg/kg/injection, schedule: Q01DX005 (ip), vehicle: Klucel (hydroxypropylcellulose) (HPC)

Measured: T/C

CN(C)c1ccc(/C=N/O)cc1
inactive: dose: 12.5 mg/kg/injection, schedule: Q01DX009 (ip), vehicle: Klucel (hydroxypropylcellulose) (HPC) 86 % of control | [1] 101 % of control and 103 % of control and 110 % of control | [2] 103 % of control and 113 % of control | [3] 104 % of control and 113 % of control | [4] 96 % of control

CC(C)N1CCOC1c1ccccc1 (stereo unspecified)
inactive: dose: 50.0 mg/kg/injection, schedule: Q04DX003 (ip), vehicle: saline sonified 109 % of control | dose: 100.0 mg/kg/injection, schedule: Q04DX003 (ip), vehicle: saline sonified 118 % of control | dose: 200.0 mg/kg/injection, schedule: Q04DX003 (ip), vehicle: saline sonified 109 % of control

CC(C)(C)c1ccc(NC(=O)c2ccccc2N)cc1
inactive: dose: 50.0 mg/kg/injection, schedule: Q01DX005 (ip), vehicle: saline with Tween-80 101 % of control | dose: 100.0 mg/kg/injection, schedule: Q01DX005 (ip), vehicle: saline with Tween-80 97 % of control | dose: 200.0 mg/kg/injection, schedule: Q01DX005 (ip), vehicle: saline with Tween-80 92 % of control

CCOC(=O)CCc1c(-c2ccccc2)[nH]c2ccccc12
inactive: [5] 106 % of control | [6] 107 % of control | [7] 101 % of control

OCc1cc2ccc3ccccc3c2[nH]1
inactive: [5] 96 % of control | [6] 89 % of control | [7] 91 % of control

NNC(=O)CNc1cc(Cl)cc(Cl)c1
inactive: [5] 113 % of control | [6] 97 % of control | [7] 100 % of control

CC(C)CS(=O)(=O)c1ncnc2nc[nH]c12
inactive: [8] 102 % of control | [9] 97 % of control | [10] 91 % of control

Cc1ccc2[nH]c3c(c2c1)C(=O)CCC3
inactive: [8] 97 % of control | [9] 95 % of control | [10] 92 % of control

CNC(=O)C1CCCCC1Br (stereo unspecified)
inactive: [8] 103 % of control | [9] 103 % of control | [10] 105 % of control

O=c1cc(O)n(-c2ccccc2)c(=O)n1-c1ccccc1
inactive: dose: 75.0 mg/kg/injection, schedule: Q01DX009 (ip), vehicle: saline with Tween-80 102 % of control | dose: 150.0 mg/kg/injection, schedule: Q01DX009 (ip), vehicle: saline with Tween-80 100 % of control | dose: 300.0 mg/kg/injection, schedule: Q01DX009 (ip), vehicle: saline with Tween-80 100 % of control

CCC1(O)CC2CCc3[nH]c4ccccc4c3CCN(C2)C1 (stereo unspecified)
inactive: dose: 5.25 mg/kg/injection, schedule: Q01DX005 (ip), vehicle: Klucel (hydroxypropylcellulose) (HPC) 100 % of control | dose: 10.5 mg/kg/injection, schedule: Q01DX005 (ip), vehicle: Klucel (hydroxypropylcellulose) (HPC) 100 % of control | dose: 21.0 mg/kg/injection, schedule: Q01DX005 (ip), vehicle: Klucel (hydroxypropylcellulose) (HPC) 98 % of control | dose: 42.0 mg/kg/injection, schedule: Q01DX005 (ip), vehicle: Klucel (hydroxypropylcellulose) (HPC) 95 % of control

O=C1/C(=C/c2ccccc2[N+](=O)[O-])CCCc2ccccc21
inactive: [2] 94 % of control | [3] 103 % of control | [4] 105 % of control

COc1cc2c(c(OC)c1OC)-c1cc3c(cc1CC(CO)C(CO)C2)OCO3 (stereo unspecified)
inactive: dose: 0.5 mg/kg/injection, schedule: Q04DX002 (ip), vehicle: saline with Tween-80 101 % of control | dose: 1.0 mg/kg/injection, schedule: Q04DX002 (ip), vehicle: saline with Tween-80 106 % of control | dose: 2.0 mg/kg/injection, schedule: Q04DX002 (ip), vehicle: saline with Tween-80 103 % of control

CCCCCCCCCCCCCCCCCC(=O)N[C@@H](Cc1ccc(N(CCCl)CCCl)cc1)C(=O)NCCCCCC
inactive: dose: 2.12 mg/kg/injection, schedule: Q01DX009 (ip), vehicle: saline 109 % of control | dose: 2.12 mg/kg/injection, schedule: Q03HX008 (ip), vehicle: saline 90 % of control | dose: 4.24 mg/kg/injection, schedule: Q01DX009 (ip), vehicle: saline 113 % of control | dose: 4.24 mg/kg/injection, schedule: Q03HX008 (ip), vehicle: saline 100 % of control | dose: 8.48 mg/kg/injection, schedule: Q03HX008 (ip), vehicle: saline 100 % of control | dose: 16.95 mg/kg/injection, schedule: Q03HX008 (ip), vehicle: saline 100 % of control | dose: 33.9 mg/kg/injection, schedule: Q03HX008 (ip), vehicle: saline 90 % of control | dose: 67.8 mg/kg/injection, schedule: Q03HX008 (ip), vehicle: saline 90 % of control

O=C1COC(C(=O)c2ccccc2)C(=O)N1 (stereo unspecified)
inactive: [5] 98 % of control | [6] 95 % of control | [7] 95 % of control

Ic1ccc(C2CC(c3ccccc3)=NN2c2ccccc2)cc1 (stereo unspecified)
inactive: [1] 97 % of control | [2] 87 % of control | [3] 87 % of control | [4] 90 % of control

C=CCN(CC=C)CCN1CCN(CCCN2c3ccccc3Sc3ccc(C(F)(F)F)cc32)CC1
inactive: dose: 12.5 mg/kg/injection, schedule: Q04DX003 (ip), vehicle: saline 101 % of control and 103 % of control | dose: 25.0 mg/kg/injection, schedule: Q04DX003 (ip), vehicle: saline 111 % of control and 112 % of control | dose: 50.0 mg/kg/injection, schedule: Q04DX003 (ip), vehicle: saline 104 % of control and 107 % of control | dose: 100.0 mg/kg/injection, schedule: Q04DX003 (ip), vehicle: saline 100 % of control and 102 % of control

C=C1CC[C@H]2C(C)=CC[C@@H]3[C@H](OC(=O)[C@H]3COC)[C@@H]12
inactive: dose: 100.0 mg/kg/injection, schedule: Q01DX001 (ip), vehicle: saline 107 % of control | dose: 200.0 mg/kg/injection, schedule: Q01DX001 (ip), vehicle: saline 97 % of control | dose: 400.0 mg/kg/injection, schedule: Q01DX001 (ip), vehicle: saline 103 % of control

CCOC(=NC#N)NOC
inactive: dose: 60.0 mg/kg/injection, schedule: Q01DX005 (ip), vehicle: Klucel (hydroxypropylcellulose) (HPC) 93 % of control | dose: 120.0 mg/kg/injection, schedule: Q01DX005 (ip), vehicle: Klucel (hydroxypropylcellulose) (HPC) 98 % of control | dose: 240.0 mg/kg/injection, schedule: Q01DX005 (ip), vehicle: Klucel (hydroxypropylcellulose) (HPC) 102 % of control

NC(=S)c1ccc(C2Nc3cccnc3N2)cc1 (stereo unspecified)
inactive: dose: 50.0 mg/kg/injection, schedule: Q01DX009 (ip), vehicle: saline with Tween-80 93 % of control | dose: 100.0 mg/kg/injection, schedule: Q01DX009 (ip), vehicle: saline with Tween-80 95 % of control | dose: 200.0 mg/kg/injection, schedule: Q01DX009 (ip), vehicle: saline with Tween-80 90 % of control

CCCCCCCCCCCCC1(O)OC(=O)C(C)=C1C (stereo unspecified)
inactive: dose: 12.5 mg/kg/injection, schedule: Q04DX003 (ip), vehicle: saline with Tween-80 108 % of control | dose: 25.0 mg/kg/injection, schedule: Q04DX003 (ip), vehicle: saline with Tween-80 102 % of control | dose: 50.0 mg/kg/injection, schedule: Q04DX003 (ip), vehicle: saline with Tween-80 106 % of control

Cc1cc(Cl)c2c(N(C)C)cccc2n1
inactive: dose: 50.0 mg/kg/injection, schedule: Q01DX009 (ip), vehicle: acid diluted with saline 106 % of control | dose: 100.0 mg/kg/injection, schedule: Q01DX009 (ip), vehicle: acid diluted with saline 93 % of control

CCOC(=O)c1cc(CC)[nH]c(=O)c1C#N
inactive: dose: 25.0 mg/kg/injection, schedule: Q01DX005 (ip), vehicle: Klucel (hydroxypropylcellulose) (HPC) 92 % of control | [8] 98 % of control | [9] 100 % of control

CN1CCC(OC(=O)Oc2ccccc2)CC1
inactive: dose: 50.0 mg/kg/injection, schedule: Q01DX009 (ip), vehicle: saline 105 % of control | dose: 100.0 mg/kg/injection, schedule: Q01DX009 (ip), vehicle: saline 92 % of control | dose: 200.0 mg/kg/injection, schedule: Q01DX009 (ip), vehicle: saline 102 % of control
